Results from patent US20090149518A1, “PHARMACEUTICAL FOR PROTECTION OF MOTOR NERVE IN PATIENT WITH AMYOTROPHIC LATERAL SCLEROSIS” (ONO PHARMACEUTICAL CO., LTD., priority 2005, published 2009).

Key:
Assay type in all cases: in vivo, human
[1] = system: patients with amyotrophic lateral sclerosis; assay: Example 1 clinical study: respiratory function (slow vital capacity); settings: Active group
Protocol: (§1) As a clinical study, double blind placebo-controlled parallel group study was carried out on patients with amyotrophic lateral sclerosis, under the following conditions.
(§2) (1) Active group: (2R)-2-propyloctanoic acid 1200 mg (four soft capsules comprising 300 mg of (2R)-2-propyloctanoic acid per capsule);
(§3) Both Active and Placebo groups are administered for 12 months.
(§4) Riluzole was administered to all subjects in Active and Placebo groups in the manner of standard therapy (riluzole 50 mg tablet: one tablet twice a day (before breakfast and dinner), oral daily dose of 100 mg).
(§5) Evaluation method: Slow vital capacity (SVC) of the subject was measured at the following evaluation times. SVC was measured three times in the sitting position, allowing sufficient recovery time between each manoeuvre. The highest SVC value was recorded.
Evaluation time: 1, 2, 4, 6, 8, 10 and 12 month(s) from the start of administration.
Suppression of respiratory disability and improvement in survival rate are shown by oral administration of (2R)-2-propyloctanoic acid in the patient within about 14 months after the onset of muscular weakness (Active group: 55 patients, Placebo group: 54 patients. Both Active and Placebo groups are treated with standard riluzole therapy). Hereinafter, each result is described in detail, […]

[2] = system: patients with amyotrophic lateral sclerosis; assay: Example 2 clinical study: efficacy measurements; settings: 1200 mg once a day oral for 18 months plus standard riluzole; patients less than 14 months from onset of muscular weakness
Protocol: as §1
(3) Less than 14 months from onset of muscular weakness;
as §2
(§6) Both Active and Placebo group are administered for 18 months.
(§7) Riluzole was administered to all subjects in Active and Placebo group in the manner of standard therapy (riluzole 50 mg tablet: one tablet twice a day (before breakfast and dinner), oral daily dose of 100 mg).
as §5
Evaluation method: Functional status of the subject was assessed at the following evaluation times using revised amyotrophic lateral sclerosis functional rating scale (ALSFRS-R) shown in above-mentioned Table 1 to 13.
Evaluation method; Muscle strength of the subject was assessed at the following evaluation times using medical research council scale shown in before-mentioned Table 14. […]
Evaluation method: Death, bronchotomy, and using noninvasive ventilator were recorded for each subject, if and when it occurs. […]

[3] = system: patients with amyotrophic lateral sclerosis; assay: Example 2 clinical study: safety measurements; settings: 1200 mg once a day oral for 18 months plus standard riluzole
Protocol: as §1, §2, §6, §7
Evaluation method: Blood pressure and pulse of the subject were recorded at the following evaluation times.
Evaluation method: 12 lead ECG was conducted at the following evaluation times. Sinus rhythm, RR interval, PR interval, QRS duration, QT/QTc, and so forth were assessed.
Evaluation method: Weight of the subject was measured at the following evaluation times.
Evaluation method: Clinical laboratory test (haematology, biochemistry and urinalysis) of the subject was conducted at the following evaluation times.
(§8) Evaluation method: Incidence and content (e.g., symptom, causal association, etc.) of clinical adverse events were monitored for each subject.

[4] = system: patients with amyotrophic lateral sclerosis; assay: Example 1 clinical study: survival; settings: Active group, 1200 mg once a day oral for 12 months plus standard riluzole; patients within about 14 months after onset of muscular weakness
Protocol: As a clinical study, double blind placebo-controlled parallel group study was carried out on patients with amyotrophic lateral sclerosis, under the following conditions. […] (1) Active group: (2R)-2-propyloctanoic acid 1200 mg (four soft capsules comprising 300 mg of (2R)-2-propyloctanoic acid per capsule); Both Active and Placebo groups are administered for 12 months. Riluzole was administered to all subjects in Active and Placebo groups in the manner of standard therapy (riluzole 50 mg tablet: one tablet twice a day (before breakfast and dinner), oral daily dose of 100 mg). Evaluation method: Death was recorded for each subject, if and when it occurs. Evaluation time. Throughout the study. Suppression of respiratory disability and improvement in survival rate are shown by oral administration of (2R)-2-propyloctanoic acid in the patient within about 14 months after the onset of muscular weakness (Active group: 55 patients, Placebo group: 54 patients. Both Active and Placebo groups are treated with standard riluzole therapy). Hereinafter, each result is described in detail, […]

[5] = system: patients with amyotrophic lateral sclerosis; assay: Example 1 clinical study: clinical adverse events; settings: Active group, 1200 mg once a day oral for 12 months plus standard riluzole
Protocol: as §1, §2, §3, §4, §8
Evaluation time: Throughout the study.

[6] = system: ALS patients; assay: Studies of the inventors: (2R)-2-propyloctanoic acid used alone in ALS patients; settings: without riluzole

For `CCCCCC[C@@H](CCC)C(=O)O` [(2R)-2-propyloctanoic acid], the “reduction of slow vital capacity (% of the predicted value) at 12 months from the start of administration compared to before-administration” value ([1]; 1200 mg once a day oral for 12 months plus standard riluzole 100 mg/day, patients within about 14 months after onset of muscular weakness (55 patients)) was 38.27%, the “patients whose slow vital capacity was lowered to 50% or less of predicted in 12 months” value ([1]; 1200 mg once a day oral plus standard riluzole, patients within about 14 months after onset of muscular weakness, result of estimation) was “about 35 % of patients” and the “effectiveness on suppressing muscular weakness, suppressing respiratory disability, extending survival period, improvement in quality-of-life measures” value [2] was “shows its effectiveness on at least one of”. For the same compound, the “safety in ALS patient” value [3] was “safe”, the “mortality in the dosing period” value [4] was 9 of 55 and the survival rate [4] was 84%. The “frequency of adverse event” value [5] was 89%, the “frequency of serious adverse event” value [5] was 49% and the “effect on ALS patients when used alone” value [6] was “cannot exert any satisfactory effect”.
